≈ marks a conversion by molar mass, not a printed value.
Legend:
Type in all cases: cell-based
E. faecalis MGH-2 EF 1-1 = assay: in vitro antibacterial activity (MIC), E. faecalis; details: Enterococcus faecalis, MGH2EF11
From the text: (§1) The in vitro antibacterial activity of the compounds of the present invention may be assessed by following procedures recommended in (1) National Committee for Clinical Laboratory Standards (January 2003), Methods for dilution antimicrobial tests for bacteria that grow aerobically, Approved Standard (6th ed), M7-A6, NCCLS, Wayne, Pa.; (2) National Committee for Clinical Laboratory Standards (March 2001), Methods for antimicrobial susceptibility testing of anaerobic bacteria, Approved Standard (5th ed), M11-A4, NCCLS, Wayne, Pa.; (3) National Committee for Clinical Laboratory Standards (Jan. 2003), MIC testing supplemental tables, M100-S13 (for use with M7-A6), NCCLS, Wayne, Pa.; and (4) Murray P R, Baron E J, Jorgensen J H, et al. Manual of Clinical Microbiology (8th ed) Washington, D.C.: American Society for Microbiology Press, 2003. The MIC value is the lowest concentration of drug which prevented macroscopically visible growth under the conditions of the test.

S. pneumoniae SV1 SP-3 = assay: in vitro antibacterial activity (MIC), S. pneumoniae; details: Streptococcus pneumoniae, SV1SP3
From the text: as §1

S. aureus UC-76 SA-1 = assay: in vitro antibacterial activity (MIC), S. aureus; details: Staphylococcus aureus, UC76, S. aureus UC-76 SA-1
From the text: as §1

SMILES	MIC90 (E. faecalis MGH-2 EF 1-1) [µg/mL]	MIC90 (S. pneumoniae SV1 SP-3) [µg/mL]	MIC90 (S. aureus UC-76 SA-1) [µg/mL]
CCC(=O)NC[C@H]1CN(c2ccc3c(c2)CC(=O)N3CC2CC2)C(=O)O1 [Example 27, (S)—N-[3-(1-cyclopropylmethyl-2-oxo-2,3-dihydro-1H-indol-5-yl)-2-oxo-oxazolidin-5-ylmethyl]-propionamide]	8 (≈ 22.4 µM)	4 (≈ 11.2 µM)	8 (≈ 22.4 µM)
CC(=O)NC[C@H]1CN(c2cc(F)c3c(c2)CC(=O)N3C)C(=O)O1 [Example 3, N-[3-(7-fluoro-1-methyl-2-oxo-2,3-dihydro-1H-indol-5-yl)-2-oxo-oxazolidin-5-ylmethyl]-acetamide]	4 (≈ 12.4 µM)	2 (≈ 6.22 µM)	4 (≈ 12.4 µM)
CCC(=O)NC[C@H]1CN(c2cc(F)c3c(c2)CC(=O)N3C(C)C)C(=O)O1 [Example 16, (S)—N-[3-(7-fluoro-1-isopropyl-2-oxo-2,3-dihydro-1H-indol-5-yl)-2-oxo-oxazolidin-5-ylmethyl]-propionamide]	4 (≈ 11 µM)	4 (≈ 11 µM)	8 (≈ 22 µM)
CC(=O)NC[C@H]1CN(c2ccc3c(c2)CC(=O)N3C(C)CF)C(=O)O1 (stereo partly drawn) [Example 28, (S)—N-{3-[1-(2-fluoro-1-methyl-ethyl)-2-oxo-2,3-dihydro-1H-indol-5-yl]-2-oxo-oxazolidin-5-ylmethyl}-acetamide]	4 (≈ 11.4 µM)	2 (≈ 5.72 µM)	8 (≈ 22.9 µM)
CC(=O)NC[C@H]1CN(c2ccc3c(c2)CC(=O)N3CCF)C(=O)O1 [Example 9, (S)—N-{3-[1-(2-fluoro-ethyl)-2-oxo-2,3-dihydro-1H-indol-5-yl]-2-oxo-oxazolidin-5-ylmethyl}-acetamide]	2 (≈ 5.96 µM)	2 (≈ 5.96 µM)	8 (≈ 23.9 µM)
CCCN1C(=O)Cc2cc(N3C[C@H](CNC(=O)CC)OC3=O)ccc21 [Example 18, (S)—N-[2-oxo-3-(2-oxo-1-propyl-2,3-dihydro-1H-indol-5-yl)-oxazolidin-5-ylmethyl]-propionamide]	8 (≈ 23.2 µM)	4 (≈ 11.6 µM)	8 (≈ 23.2 µM)
CCC(=O)NC[C@H]1CN(c2cc(F)c3c(c2)CC(=O)N3C)C(=O)O1 [Example 4, (S)—N-[3-(7-fluoro-1-methyl-2-oxo-2,3-dihydro-1H-indol-5-yl)-2-oxo-oxazolidin-5-ylmethyl]-propionamide]	4 (≈ 11.9 µM)	2 (≈ 5.96 µM)	8 (≈ 23.9 µM)
CCCN1C(=O)Cc2cc(N3C[C@H](CNC(=O)CC)OC3=O)cc(F)c21 [Example 20, (S)—N-[3-(7-Fluoro-2-oxo-1-propyl-2,3-dihydro-1H-indol-5-yl)-2-oxo-oxazolidin-5-ylmethyl]-propionamide]	8 (≈ 22 µM)	4 (≈ 11 µM)	8 (≈ 22 µM)
CCC(=O)NC[C@H]1CN(c2cc(F)c3c(c2)CC(=O)N3CC)C(=O)O1 [Example 8, (S)—N-[3-(1-ethyl-7-fluoro-2-oxo-2,3-dihydro-1H-indol-5-yl)-2-oxo-oxazolidin-5-ylmethyl]-propionamide]	2 (≈ 5.72 µM)	4 (≈ 11.4 µM)	4 (≈ 11.4 µM)
CCC(=O)NC[C@H]1CN(c2ccc3c(c2)CC(=O)N3C2CC2)C(=O)O1 [Example 22, (S)—N-[3-(1-cyclopropyl-2-oxo-2,3-dihydro-1H-indol-5-yl)-2-oxo-oxazolidin-5-ylmethyl]-propionamide]	4 (≈ 11.6 µM)	4 (≈ 11.6 µM)	8 (≈ 23.3 µM)
CC(=O)NC[C@H]1CN(c2ccc3c(c2)CC(=O)N3C)C(=O)O1 [Example 1, (S)—N-[3-(1-methyl-2-oxo-2,3-dihydro-1H-indol-5-yl)-2-oxo-oxazolidin-5-ylmethyl]-acetamide]	2 (≈ 6.59 µM)	1 (≈ 3.3 µM)	8 (≈ 26.4 µM)

Continued by falling MIC90 (E. faecalis MGH-2 EF 1-1), values first:

MIC90 (E. faecalis MGH-2 EF 1-1) [µg/mL]	MIC90 (S. pneumoniae SV1 SP-3) [µg/mL]	MIC90 (S. aureus UC-76 SA-1) [µg/mL]	SMILES
8 (≈ 22.3 µM)	8 (≈ 22.3 µM)	8 (≈ 22.3 µM)	CCC(=O)NC[C@H]1CN(c2ccc3c(c2)CC(=O)N3C(C)CC)C(=O)O1 (stereo partly drawn) [Example 25, (S)—N-[3-(1-sec-butyl-2-oxo-2,3-dihydro-1H-indol-5-yl)-2-oxo-oxazolidin-5-ylmethyl]-propionamide]
8 (≈ 23.2 µM)	4 (≈ 11.6 µM)	8 (≈ 23.2 µM)	CCC(=O)NC[C@H]1CN(c2ccc3c(c2)CC(=O)N3C(C)C)C(=O)O1 [Example 14, (S)—N-[3-(1-isopropyl-2-oxo-2,3-dihydro-1H-indol-5-yl)-2-oxo-oxazolidin-5-ylmethyl]-propionamide]
8 (≈ 25.2 µM)	2 (≈ 6.3 µM)	8 (≈ 25.2 µM)	CCN1C(=O)Cc2cc(N3C[C@H](CNC(C)=O)OC3=O)ccc21 [Example 5, (S)—N-[3-(1-ethyl-2-oxo-2,3-dihydro-1H-indol-5-yl)-2-oxo-oxazolidin-5-ylmethyl]-acetamide]
4 (≈ 11.6 µM)	4 (≈ 11.6 µM)	8 (≈ 23.3 µM)	CC(=O)NC[C@H]1CN(c2ccc3c(c2)CC(=O)N3CC2CC2)C(=O)O1 [Example 26, (S)—N-[3-(1-cyclopropylmethyl-2-oxo-2,3-dihydro-1H-indol-5-yl)-2-oxo-oxazolidin-5-ylmethyl]-acetamide]
4 (≈ 11.6 µM)	4 (≈ 11.6 µM)	8 (≈ 23.2 µM)	CCC(C)N1C(=O)Cc2cc(N3C[C@H](CNC(C)=O)OC3=O)ccc21 (stereo partly drawn) [Example 24, (S)—N-[3-(1-sec-butyl-2-oxo-2,3-dihydro-1H-indol-5-yl)-2-oxo-oxazolidin-5-ylmethyl]-acetamide]
4 (≈ 12.1 µM)	2 (≈ 6.07 µM)	8 (≈ 24.3 µM)	CC(=O)NC[C@H]1CN(c2ccc3c(c2)CC(=O)N3C2CC2)C(=O)O1 [Example 21, (S)—N-[3-(1-cyclopropyl-2-oxo-2,3-dihydro-1H-indol-5-yl)-2-oxo-oxazolidin-5-ylmethyl]-acetamide]
4 (≈ 12.1 µM)	2 (≈ 6.04 µM)	4 (≈ 12.1 µM)	CCCN1C(=O)Cc2cc(N3C[C@H](CNC(C)=O)OC3=O)ccc21 [Example 17, (S)—N-[2-oxo-3-(2-oxo-1-propyl-2,3-dihydro-1H-indol-5-yl)-oxazolidin-5-ylmethyl]-acetamide]
4 (≈ 12.1 µM)	2 (≈ 6.04 µM)	4 (≈ 12.1 µM)	CC(=O)NC[C@H]1CN(c2ccc3c(c2)CC(=O)N3C(C)C)C(=O)O1 [Example 13, (S)—N-[3-(1-isopropyl-2-oxo-2,3-dihydro-1H-indol-5-yl)-2-oxo-oxazolidin-5-ylmethyl]-acetamide]
4 (≈ 11.5 µM)	4 (≈ 11.5 µM)	8 (≈ 23 µM)	CC(=O)NC[C@H]1CN(c2cc(F)c3c(c2)CC(=O)N3C2CC2)C(=O)O1 [Example 23, (S)—N-[3-(1-cyclopropyl-7-fluoro-2-oxo-2,3-dihydro-1H-indol-5-yl)-2-oxo-oxazolidin-5-ylmethyl]-acetamide]
4 (≈ 10.9 µM)	4 (≈ 10.9 µM)	8 (≈ 21.8 µM)	CCC(=O)NC[C@H]1CN(c2cc(F)c3c(c2)CC(=O)N3CCF)C(=O)O1 [Example 12, (S)—N-{3-[7-fluoro-1-(2-fluoro-ethyl)-2-oxo-2,3-dihydro-1H-indol-5-yl]-2-oxo-oxazolidin-5-ylmethyl}-propionamide]
2 (≈ 6.04 µM)	2 (≈ 6.04 µM)	4 (≈ 12.1 µM)	CCC(=O)NC[C@H]1CN(c2ccc3c(c2)CC(=O)N3CC)C(=O)O1 [Example 6, (S)—N-[3-(1-ethyl-2-oxo-2,3-dihydro-1H-indol-5-yl)-2-oxo-oxazolidin-5-ylmethyl]-propionamide]
2 (≈ 6.3 µM)	1 (≈ 3.15 µM)	8 (≈ 25.2 µM)	CCC(=O)NC[C@H]1CN(c2ccc3c(c2)CC(=O)N3C)C(=O)O1 [Example 2, (S)—N-[3-(1-methyl-2-oxo-2,3-dihydro-1H-indol-5-yl)-2-oxo-oxazolidin-5-ylmethyl]-propionamide]
2 (≈ 5.53 µM)	2 (≈ 5.53 µM)	2 (≈ 5.53 µM)	CC(=O)NC[C@H]1CN(c2cc(F)c3c(c2)CC(=O)N3CC2CC2)C(=O)O1 [Example 29, (S)—N-[3-(1-cyclopropylmethyl-7-fluoro-2-oxo-2,3-dihydro-1H-indol-5-yl)-2-oxo-oxazolidin-5-ylmethyl]-acetamide]
2 (≈ 5.66 µM)	1 (≈ 2.83 µM)	4 (≈ 11.3 µM)	CC(=O)NC[C@H]1CN(c2cc(F)c3c(c2)CC(=O)N3CCF)C(=O)O1 [Example 11, (S)—N-{3-[7-fluoro-1-(2-fluoro-ethyl)-2-oxo-2,3-dihydro-1H-indol-5-yl]-2-oxo-oxazolidin-5-ylmethyl}-acetamide]
2 (≈ 5.96 µM)	2 (≈ 5.96 µM)	2 (≈ 5.96 µM)	CCN1C(=O)Cc2cc(N3C[C@H](CNC(C)=O)OC3=O)cc(F)c21 [Example 7, (S)—N-[3-(1-ethyl-7-fluoro-2-oxo-2,3-dihydro-1H-indol-5-yl)-2-oxo-oxazolidin-5-ylmethyl]-acetamide]
